Measured values published in US20140213557A1, “Active Compound Combinations” (Bayer CropScience AG, priority 2005, published 2014).
Where “and” joins values, the source holds several entries; their conditions need not be identical. Equal entries are not always repeated.

Test system: Phakopsora pachyrhizi
Assay: Phakopsora test (soya bean)
Type: in vivo
Settings: sprayed 1 day before inoculation, evaluation 11 days after inoculation
Method: The suitable active compound preparations used are commercial formulations which, if required, are diluted to the desired concentration prior to application.
Soya bean plants (cv. Miyagishirome) are cultivated in a plastic vessel having a diameter of 7.5 cm for 14 days, until they have reached the ⅔-leaf stage. The active compound preparations were, at the concentrations stated below, sprayed onto the test plants (6 ml for in each case 3 test vessels, the test solution contains 0.02% of Neoesterin as tackifier).
1 day after the application of the active compound preparation, the plants were sprayed with a urediniospore suspension (1×10^5 urediniospores/ml) of the rust pathogen Phakopsora pachyrhizi. The plants are then placed in a greenhouse at about 25° C. during the day and about 18° C. at night and a relative atmospheric humidity of 91.9%.
Evaluation is carried out 11 days after the inoculation by comparison of the infected areas of untreated and treated plants. 0% means an efficacy which corresponds to that of the control, whereas an efficacy of 100% means that no infection is observed.

| SMILES | Efficacy in % found (application rate 0.5 ppm) | Efficacy in % found (application rate 5 ppm) |
| --- | --- | --- |
| O=C(O)CNCP(=O)(O)O [(1-1) glyphosate, glyphosate] | 0% | 0% |
| CP(=O)(O)CCC(N)C(=O)O (centres unmarked) [(1-2) glufosinate, glufosinate] | 0% | 0% |
| CC(C)(C)C(O)(CCc1ccc(Cl)cc1)Cn1cncn1 (centres unmarked) [(3-17) tebuconazole, tebuconazole] | 60% and 50% |  |
